Consider 4 compounds from patent US7772225B2, “N-sulfamoyl-piperidineamides for the treatment or inhibition of obesity and related conditions” (Solvay Pharmaceuticals GmbH, priority 2005, dated 2010).

One data set has as its system C57B1/6 mice. The experiment in a line: Acute in vivo food intake test in mice. To be noted: 24 h food intake, 100 mg/kg/day oral gavage in two half doses, high caloric diet, male or female mice. The procedure:
2. Acute In Vivo Food Intake Test in Mice
The studies were carried out in male or female C57B1/6 mice (n=8-12 per group). The mice were kept on an inverted 12/12h light/dark cycle (lights on 22:00). They were allowed food (high caloric diet) and water ad libitum. Food intake and water consumption was measured daily. The test compound of Formula I was suspended in 1% methylcellulose in water and 2% (v/v) of Poloxamer 188 (Lutrol F68®) and administered by oral gavage at a dose of 100 mg/kg/day. One half of the dose was administered at 7.00-9.00 h; the remaining half of the dose was administered between 15.00-15.30 h.
In the test model described above, the test substances caused a decrease of the animals' 24 h food intake to the percentages of food intake when compared to control as given in the following Table 2.

For data set [1], the target named is T1, human carbonic anhydrase isoenzyme II (hCA II) (Homo sapiens, UniProt P00918).
T1 construct: human carbonic anhydrase isoenzyme II from erythrocytes (Sigma-Aldrich); purchased Sigma-Aldrich; host or cells: human erythrocytes (natural source)
The experiment in a line: In vitro inhibition of human carbonic anhydrase isoenzyme II (hCA II), dansylamide fluorescence. It is filed as binding. To be noted: hCA II from erythrocytes 10^-7 M/L, read at 60 min 37° C., single measurements, read-out: IC50 (hCA II inhibiting effect in vitro). The protocol: 1. In Vitro Inhibition of Human Carbonic Anhydrase Isoenzyme II (hCA II)
The test compounds of Formula I in 96 well microplates were diluted with aqua bidest by using an automatic pipettor (CyBiWell®). From the different dilution plates, aliquots of 20 μl were transferred to the 96 well black assay plates with a pipetting station (Tecan Genesis®). In a second step, 148 μl of potassium phosphate buffer (20 mM, pH 7.4) was added, and as a third step, 20 μl of enzyme solution (1 μM human carbonic anhydrase isoenzyme II from erythrocytes (Sigma-Aldrich), dissolved in potassium phosphate buffer) incubated for 60 min at room temperature and the fluorescence signal (Tecan Ultra® fluorescence reader; excitation wavelength: 280 nm; emission wavelength: 465 nm) read at the end of the preincubation period (FLU-1). After the preincubation time, 20 μl of aqueous dansylamide solution (1 mM dansylamide (Sigma-Aldrich), dissolved in hydrochloric acid) were added and the fluorescence signal read every 10 min for a period of 60 min at 37° C. For calculation, the fluorescence data of the time point 60 min (FLU-2) were used. The total volume of assay mixture amounted to 208 μl. The final concentration of carbonic anhydrase II was 10^−7 M/L, of dansylamide 2.25×10^−6 and of compounds from 10^−8 M/L up to 10^−5 M/L. Final concentration of DMSO as compound solvent was 0.1 mM. […]

One may read the melting point as the temperature of the solid-liquid transition. `NS(=O)(=O)N1CCC(N(C(=O)Nc2ccc(C(F)(F)F)cc2)c2cccnc2)CC1` displayed a melting point of 188 to 191 °C. Turning to `NS(=O)(=O)N1CCC(NC(=O)Nc2ccc(F)cc2)CC1` [Example 1, 4-{[[(4fluorophenyl)amino]-carbonyl]amino}piperidine-1-sulfonamide], the “food intake [% of control]” value in the data set on C57B1/6 mice is 83 % of control. As usually defined, the IC50 is the concentration at which inhibition is half-maximal. As to `NS(=O)(=O)N1CCC(n2c(=O)[nH]c3ccccc32)CC1` [Example 10], in data set [1], the IC50 came to 7.3 µM.

With `NS(=O)(=O)N1CCC(N(Cc2ccccc2)C(=O)Nc2ccccc2)CC1` [Example 28], the IC50 in data set [1] was 6.6 µM.
